Assay results reported in PMC5602538, “Assessment of the Drug Interaction Potential of Unconjugated and GalNAc3-Conjugated 2′-MOE-ASOs” (Molecular Therapy. Nucleic Acids, 2017).
{GalNAc3} = trishexylamino-C6 triantennary GalNAc conjugate; e = 2'-O-(2-methoxyethyl) (MOE); d = 2'-deoxy (DNA)

Key:
Type in all cases: in vitro ADME
OCT1 = tested on: T1, OCT1; experiment: OCT1 substrate uptake study in MDCK cells; conditions: 10 μM ASO
T1 construct: expressed in transfected cells; host or cells: MDCK-II
Description: (§1) A 96-well cell culture plate containing a monolayer of MDCK-II cells grown on a permeable support and a corresponding receiver tray was used. The basolateral compartment of the culture plate and wells were washed with warm HBSS three times, with wells of the culture plate serving as the apical compartment. The wash was aspirated by adding 150 μL of 37°C HBSS to both compartments. Plates were incubated at 37°C with orbital shaking at 60 rpm for 15 min for OAT1, OAT3, OCT1, OCT2, OATP1B1, and OATP1B3 (±5 min). The pre-incubation buffer from both compartments was aspirated and 150 μL of the following was added to the basal compartment. For the probe substrate transport assay, HBSS in each well contained one of following probe substrates (positive control for transport), OCT1, 2 μM [^3H]-MPP^+; OCT2, 10 μM [^14C]-metformin; OAT1, 2 μM [^3H]-p-aminohippurate; OAT3, 10 μM [^3H]-p-aminohippurate; OATP1B1, 2 μM [^3H]-estradiol-17 β-D-glucuronide; and OATP1B3, 2 μM [^3H]-cholecystokinin octapeptide (CCK-8). […] Inhibition studies contained HBSS in each well, the probe substrate, and 100 μM of each test article, whereas substrate studies contained HBSS in each well and 10 μM of each test article. […] Samples containing probe substrate were added to 200 μL of scintillation fluid and counted on a 1450 Microbeta (PerkinElmer), whereas samples containing the test article were kept frozen. Test article concentrations, including control samples, were evaluated by an LC-MS method.
(§2) Signal to noise for probe substrates was calculated by dividing the uptake of the probe substrate in transporter-expressing cells by the uptake of probe substrate in control cells not expressing the transporter of interest. Percent inhibition was calculated by dividing the net-transporter-mediated substrate uptake in the presence of the test article or the reference inhibitor by the net-transporter-mediated substrate uptake in the absence of the inhibitor according to the equation: %inhibition=100−(100×(transporter-mediateduptake)withinhibitor/(transporter-mediateduptake)withoutinhibitor).

OAT3 = tested on: T2, OAT3; experiment: OAT3 substrate uptake study in MDCK cells; conditions: 10 μM ASO
T2 construct: expressed in transfected cells; host or cells: MDCK-II
Description: as §1, §2

OAT1 = tested on: T3, OAT1; experiment: OAT1 substrate uptake study in MDCK cells; conditions: 10 μM ASO
T3 construct: expressed in transfected cells; host or cells: MDCK-II
Description: as §1, §2

human hepatocytes = experiment: Hepatocyte uptake (cell pellet and supernatant concentrations by LC-UV/MS); conditions: for Cellular concentration in hepatocytes: test concentration of 1.00 μM
Description: A time-course experiment was conducted in triplicate for each concentration of test compound for 0, 30, 60, and 120 min incubations at 37°C with 5% CO2. At the end of each respective time point, the cell suspensions were centrifuged for 8 min at a speed of 50 × g, and the supernatant from each sample was collected. The cell pellets were washed by resuspension in Williams’ Medium E, followed by centrifugation at 50 × g for 8 min. The supernatant from the wash step was discarded and the remaining cell pellets were kept for analysis. Cell pellets and respective supernatants were measured for the presence of ASO by LC-MS.
Samples were analyzed using a tandem LC-UV/MS method. A total of 72 samples per ASO, corresponding to human hepatocyte cells and supernatant fractions, was assayed. Samples, curves, and controls (QCs) were aliquoted into 96-well plates and internal standard was added. Aliquots in 96-well plates were extracted via a liquid-liquid extraction using ammonium hydroxide and phenol:chloroform:isoamyl alcohol (25:24:1). The aqueous layer was then further processed via solid phase extraction (Phenomenex, Strata X SPE), and then dried down under nitrogen and reconstituted in 140 μL of water containing 100 μM EDTA. Samples were then injected onto an Agilent 6130 LC-MS system for analysis. Two curves were created for quantitation, one utilizing UV absorbance at 260 nm and an additional curve using single ion monitoring data from the mass spectrometer. The calibration range using the MS detector was 0.0640–641 μM with liver homogenate, as used to quantitate the concentration in hepatocyte pellet samples. A minimum signal-to-noise ratio of 5:1 was used to distinguish ASO peaks from background noise. […] Acceptance criteria for calibration and QC standards were set to 85%–115% of nominal values. For the MS, three QC levels were run in triplicate at 1.60 μM, 160 μM, and 481 μM and eight of the nine QCs passed. For the UV, three QC levels were run in triplicate at 160 μM, 481 μM, and 3,205 μM and all QCs passed. All samples were stored at −70°C ± 10°C upon receipt. Hepatocyte cell count conversion to μM liver weight equivalent was calculated by converting the number of hepatocytes per sample to the liver weight equivalent: [(0.1 × 10^6 cells per sample)/128 × 10^6 cells/g)] × […] = 0.78 mg, where 1 g of liver contains 128 × 10^6 cells/g. Supernatant concentrations are calculated assuming a 100% recovery and that 1 mL William E Medium is equal to 1 g. The calibration range for ASOs in transporter studies was 0.01–10 μM in 100 μL for RLT buffer and 0.005–10 μM in 100 μL for HBSS buffer.

OCT2 = tested on: T4, OCT2; experiment: OCT2 substrate uptake study in MDCK cells; conditions: 10 μM ASO
T4 construct: expressed in transfected cells; host or cells: MDCK-II
Description: as §1, §2

OATP1B3 = tested on: T5, OATP1B3; experiment: OATP1B3 substrate uptake study in MDCK cells; conditions: 10 μM ASO
T5 construct: expressed in transfected cells; host or cells: MDCK-II
Description: as §1, §2

Substance	OCT1-mediated uptake relative to corresponding controls (OCT1)	OAT3-mediated uptake relative to corresponding controls (OAT3)	OAT1-mediated uptake relative to corresponding controls (OAT1)	Average cellular concentration in hepatocytes (human hepatocytes; after 30-min incubation)	Average cellular concentration in hepatocytes (human hepatocytes; after 120-min incubation)	OCT2-mediated uptake relative to corresponding controls (OCT2)	OATP1B3-mediated uptake relative to corresponding controls (OATP1B3)	Cellular concentration in hepatocytes (human hepatocytes; after 120 min of incubation)	Cellular concentration in hepatocytes (human hepatocytes; time points 0–60 min)
ISIS 304801: 20-mer (5-10-5) 2′-MOE gapmer PS backbone antisense inhibitor of apoC-III, sequence AGCTTCTTGTCCAGCTTTAT (sugars from the 5' end e5 d10 e5, all phosphorothioate, methylation of C not given here)	< 2 fold	< 2 fold	< 2 fold	56.3 µM	140 µM	< 2 fold	< 2 fold	–	–
ISIS 420915: 20-mer 2′-MOE gapmer PS backbone antisense inhibitor of transthyretin, sequence TCTTGGTTACATGAAATCCC (all phosphorothioate, sugars by position and methylation of C not given here; 2'-MOE gapmer)	< 2 fold	< 2 fold	< 2 fold	52.2 µM	106 µM	< 2 fold	< 2 fold	–	–
ISIS 681257: 20-mer 2′-MOE gapmer PS/PO mixed backbone ASO conjugated to 5′-trishexylamino GalNAc3, targets Lp(a), sequence TGCTCCGTTGGTGCTTGTTC (5' {GalNAc3}, sugars by position and backbone not given here; 2'-MOE gapmer with mixed PS/PO backbone)	< 2 fold	< 2 fold	< 2 fold	14.0 µM	50.6 µM	< 2 fold	< 2 fold	0.626 µM	below the level of quantitation
